According to patent US20190322632A1, “HRI ACTIVATORS USEFUL FOR THE TREATMENT OF CARDIOMETABOLIC DISEASES” (UNIVERSITAT DE BARCELONA, priority 2016, published 2019):

How the values were obtained:
human Huh-7 hepatocytes = test: Palmitate-induced triglyceride accumulation in hepatocytes (Oil Red O staining); assay type: cell-based; settings: Huh-7 cells, 24 h, 0.75 mmol/L palmitate plus 10 μmol/L compound; FIG. 5
Procedure: To examine the effects of HRI activators on triglyceride accumulation and insulin signaling in hepatocytes, the N,N′-diarylurea BTdCPU was used. HRI is a kinase that phosphorylates eIF2α at its Ser 51 residue to execute protein synthesis regulation and thereby HRI activators cause the phosphorylation of eIF2α as previously described (Chen T. et al., ibid). First, the effect of BTdCPU on human Huh-7 hepatocytes exposed to the saturated fatty acid palmitate was explored. Huh-7 cells were incubated for 24 h with BSA (Control, CT), 0.75 mmol/L palmitate (Pal) conjugated with BSA or 0.75 mmol/L palmitate plus 10 μmol/L BTdCPU (Pal+BTdCPU). Then, they were stained with Oil Red O that allows selective detection of neutral lipids (primarily triglyceride and cholesterol esters) within Huh-7 cells.

Akt = test: Insulin signalling in hepatocytes (insulin-stimulated Akt phosphorylation, immunoblot); assay type: cell-based, human; settings: Huh-7 cells, 24 h, 0.75 mmol/L palmitate plus 10 μmol/L compound, 100 nmol/L insulin last 10 min; FIG. 6
Procedure: (B). When indicated (+), cells were incubated with 100 nmol/L insulin (I) for the last 10 min. Data are presented as the mean±SD (n=4 per group). ***p<0.001 and *p<0.05 vs. control cells not exposed to insulin. ^###p<0.001 and ^##p<0.01 vs. insulin-stimulated control cells. ^554 \\p<0.001 vs. insulin-stimulated cells incubated with palmitate. Ins: insulin.
Inventors examined the insulin signalling pathway by measuring insulin-stimulated Akt phosphorylation. Huh-7 cells were incubated for 24 h with BSA (Control, CT), 0.75 mmol/L palmitate (Pal) conjugated with BSA, or 0.75 mmol/L palmitate plus 10 μmol/L BTdCPU (Pal+BTdCPU). Immunoblot analyses of total and phosphorylated Akt was carried out.

[1] = test system: mice fed a high-fat diet (HFD); test: Glucose tolerance test in mice fed a high-fat diet; assay type: in vivo; settings: HFD three weeks, 70 mg kg^−1 day^−1 i.p. daily for the last week, FIG. 7
Text: Data are presented as the mean±SD (n=6 per group). *p<0.05 vs. mice fed a standard diet (CT). #p<0.05 vs. mice fed a HFD. G: glucose.
T2DM is characterized by glucose intolerance, which is contributed to by peripheral (muscle, fat, and liver) insulin resistance as well as islet […] dysfunction (cf. Andrikopoulos S. et al., “Evaluating the glucose tolerance test in mice”, Am. J. Physiol. Endocrinol. Metab., 2008, vol. 295, pp. E1323-32). The glucose tolerance test (GTT) is used in clinical practice and research to identify individuals with impaired glucose tolerance by assessing the disposal of a glucose load. It is important to acknowledge that the GTT is the only means of identifying impaired glucose tolerance, which is considered a prediabetic state (cf. Andrikopoulos S. et al., ibid). The standard presentation of results from GTTs is a description of blood glucose levels over time after the glucose administration. Generally, a time course of absolute glucose levels is presented. When using diabetic or insulin-resistant models (such as the HFD-fed mouse), a time course of absolute glucose levels should still be presented along with a calculation of the AUC above baseline glucose. In this assay, the effect of the BTdCPU compound on glucose tolerance in mice fed a high-fat diet (HFD) was examined. […]

mice fed a HFD = test: HFD-induced steatosis in mice (ORO and H&E liver staining, hepatic triglyceride levels); assay type: in vivo; settings: HFD three weeks, 70 mg kg^−1 day^−1 i.p. daily for the last week
Text: FIG. 8. (A) Oil Red O and eosin-hematoxylin (H&E) staining of livers of mice fed a standard chow (CT), a HFD for three weeks (HFD) or a HFD for three weeks plus BTdCPU during the last week (HFD+BTdCPU). (B) Liver triglyceride levels. Data are presented as the mean±SD (n=6 per group). *p<0.05 vs. mice fed a standard diet (CT). ^#p<0.05 vs. mice fed a HFD. G: glucose. TG: triglyceride.
Inventors examined whether the treatment with an HRI activator (BTdCPU) prevented the development of steatosis induced by a HFD. Histological analysis of a liver biopsy remains the gold standard for assessing the degree of steatosis. ORO staining and eosin-hematoxylin (H&E) staining of liver sections were performed. Mice fed a standard chow and half of the mice fed the HFD received one daily i.p. administration of DMSO (vehicle) for the last week. The rest of the mice fed the HFD received one daily i.p. administration of BTdCPU (70 mg kg^−1 day^−1) for the last week. […] Finally, hepatic lipids were extracted and hepatic triglyceride levels were assessed by using a commercially available kit (TR0100, Sigma). […] Overall, these findings indicate that HRI activation prevents HFD-induced steatosis.

FGF21 = FGF21 expression in hepatocytes (quantitative real-time RT-PCR); assay type: cell-based, human; settings: Huh-7 hepatocytes, 24 h, 10 μM; FIG. 9
Procedure: Human Huh-7 hepatocytes were incubated for 24 h in the absence (Control, CT) or in the presence of compounds (10 μM). Assessment by quantitative real-time RT-PCR of FGF21. Data are presented as the mean±SD (n=4 per group). ***p<0.001 and **p<0.01 vs CT. ^###p<0.001, ^##p<0.01 and ^#p<0.05 vs BTCtFPU. ^††p<0.01 and ^†p<0.05 vs BTdCPU. BTCtFPU=1-(benzo[d][1,2,3]thiadiazol-6-yl)-3-(4-chloro-3-(trifluoromethyl)phenyl)urea (compound (3) in Chen T. et al., ibid.).

O=C(Nc1ccc(Cl)c(Cl)c1)Nc1ccc2nnsc2c1 [BTdCPU, 1-(benzo[d][1,2,3]thiadiazol-6-yl)-3-(3,4-dichlorophenyl)urea]
palmitate-induced triglyceride accumulation (Oil Red O staining) (human Huh-7 hepatocytes): accumulation was prevented | insulin-stimulated Akt phosphorylation (Akt): partially restored the reduction in insulin-stimulated Akt phosphorylation caused by palmitate | glucose tolerance test AUC above baseline glucose [1]: prevented the increase in the AUC above baseline glucose | hepatic steatosis (ORO and H&E staining) (mice fed a HFD; FIG. 8A): hepatic steatosis was reversed | hepatic triglyceride levels (mice fed a HFD; FIG. 8B): increase was completely blunted | FGF21 expression compared with BTCtFPU (FGF21): significant higher increase than compound BTCtFPU
